We go through 21 molecules from patent US11566030B2, “Substituted 2,6-dihydropyrrolo[3,4-c]pyrazoles as pyruvate kinase activators” (priority 2021, dated 2023).

Like-named read-outs stand apart in the source and are kept apart here.

The target in the test is T1, Human pyruvate kinase R (PKR) (Homo sapiens, UniProt P30613).
T1 construct: Human pyruvate kinase R (PKR), residues 14-574; 6xHis-8xArg-SUMO (N, cleaved yes); host or cells: E. coli
Kind of test: Biochemical assay for activation of pyruvate kinase R (Kinase-Glo luminescence, ATP generation). The following applies: for Emax: read-out: PKR % activation, maximal activation level achieved with each compound relative to the activation level achieved by AG-348 @ 10 μM. How it is done: Human pyruvate kinase R (PKR), residues 14-574, and human pyruvate kinase M2, residues 1-531, were cloned into expression plasmids and obtained from ATUM Bio (Newark, Calif.). Proteins were translated as fusions with 6×-His,8×-Arg, and SUMO at the N-terminus. A third construct of human PKR was truncated, residues 50-574, and similarly cloned for use in crystallography experiments. All proteins were cloned, expressed in E. coli, and purified using similar protocols. Cells were grown at 30° C. in Luria-Bertani broth supplemented with 0.4% glucose to OD600=0.8 and induced with 0.4 mM IPTG at 16° C. for 18 hours. Cells were harvested by centrifugation, resuspended in 50 mM potassium phosphate pH 8.0, 500 mM NaCl, 25 mM imidazole pH 8.0, and 3 mM β-mercaptoethanol. Cells were lysed using a LM20 microfluidizer from Microfluidics (Westwood, Mass.). The crude lysate was immediately supplemented with 0.2 mM phenylmethylsulfonyl fluoride (PMSF) and centrifuged at 20,000 g for 20 minutes. The soluble fraction was subsequently incubated with 2 mL Ni-NTA (GE Healthcare) per 1,000 ODs for 1 hour at 4° C. Following incubation with the Ni-NTA resin, lysate was removed by pelleting resin at 2,500 g for 3 minutes and washed 3 times with 9 bed volumes of 50 mM potassium phosphate pH 8.0, 500 mM NaCl, 25 mM imidazole, and 3 mM β-mercaptoethanol. Following the batch wash Ni-NTA resin was loaded onto a gravity column and His-tagged protein was eluted with 6 bed volumes of 10 mM Tris/HCl pH 8.0, 200 mM NaCl, 500 mM imidazole, and 3 mM β-mercaptoethanol. Eluted protein was dialyzed overnight against 10 mM Tris/HCl pH 8.0, 200 mM NaCl, and 1 mM DTT and the 6×-His-8×-Arg-SUMO-tag was cleaved using a 20:1 molar ratio of protein: 3C protease. The protein was purified by anion exchange chromatography on a HiTrapQ or MonoQ 10/100 GL column (GE Healthcare) via a linear NaCl gradient and twice by size exclusion chromatography using a Superdex S200 26/60 column (GE Healthcare) run in 10 mM Tris/HCl pH 8.0, 200 mM NaCl, 10 mM MgCl2, 1 mM DTT. Proteins were concentrated to −12 mg/mL for crystallization and flash frozen for storage.
Biochemical assay for Activation of Pyruvate Kinase R
Activation of pyruvate kinase R (PKR) and pyruvate kinase M2 (PKM2) were measured using a luminescence based measurement of ATP generation and the Kinase-Glo luminescent kinase reagent kit.

Where [1] appears, read: PKR AC50 (nM), 0.1 nM PKR, 0.3 mM ADP, 0.1 mM PEP, 1% DMSO.

T1 sequence (P30613 14-574): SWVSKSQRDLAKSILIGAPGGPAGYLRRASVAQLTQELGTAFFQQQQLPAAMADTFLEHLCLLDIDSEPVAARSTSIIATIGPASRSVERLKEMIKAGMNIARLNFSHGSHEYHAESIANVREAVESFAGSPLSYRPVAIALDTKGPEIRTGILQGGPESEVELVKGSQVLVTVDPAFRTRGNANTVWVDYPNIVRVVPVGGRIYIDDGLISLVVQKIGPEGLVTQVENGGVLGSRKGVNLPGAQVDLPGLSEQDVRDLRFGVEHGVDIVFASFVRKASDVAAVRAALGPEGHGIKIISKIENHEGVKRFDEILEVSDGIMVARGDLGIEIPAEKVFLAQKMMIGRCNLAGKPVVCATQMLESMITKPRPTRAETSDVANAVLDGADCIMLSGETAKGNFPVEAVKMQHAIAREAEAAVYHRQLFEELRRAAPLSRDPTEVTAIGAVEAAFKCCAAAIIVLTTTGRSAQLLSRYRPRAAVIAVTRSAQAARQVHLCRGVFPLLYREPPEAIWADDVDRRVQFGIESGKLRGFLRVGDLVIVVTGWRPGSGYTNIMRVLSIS

Regarding `COCCn1ccc(S(=O)(=O)n2cc3c(n2)CN(C(=O)[C@@H](CO)c2ccccc2F)C3)n1` [Compound 45, (2R)-2-(2-fluorophenyl)-3-hydroxy-1-[2-[1-(2-methoxyethyl)pyrazol-3-ylsulfonyl]-4H,6H-pyrrolo[3,4-c]pyrazol-5-yl]propan-1-one], the Emax is 53%. This molecule also displayed a half-maximal activity concentration (AC50) under setting [1] of 1300 nM.

With `O=C([C@@H](CO)c1ccccc1Cl)N1Cc2cn(S(=O)(=O)c3cnn(CC(F)F)c3)nc2C1` [Compound 46, (R)-2-(2-chlorophenyl)-1-(2-((1-(2,2-difluoroethyl)-1H-pyrazol-4-yl)sulfonyl)-2,6-dihydropyrrolo[3,4-c]pyrazol-5(4H)-yl)-3-hydroxypropan-1-one], the concentration at half-maximal activity (AC50) was 150 nM and the Emax is 191%.

Consider `O=C([C@H](CO)c1ccccc1Cl)N1Cc2cn(S(=O)(=O)c3cnn(CC(F)(F)F)c3)nc2C1` [Compound 47, (2S)-2-(2-chlorophenyl)-3-hydroxy-1-[2-[1-(2,2,2-trifluoroethyl)pyrazol-4-ylsulfonyl]-4H,6H-pyrrolo[3,4-c]pyrazol-5-yl]propan-1-one], for which the Emax worked out at 108%. This molecule also returned an AC50 under setting [1] of 10 nM.

Turning to `O=C([C@@H](CO)c1ccccc1Cl)N1Cc2cn(S(=O)(=O)c3cnn(CC(F)(F)F)c3)nc2C1` [Compound 48, (2R)-2-(2-chlorophenyl)-3-hydroxy-1-[2-[1-(2,2,2-trifluoroethyl)pyrazol-4-ylsulfonyl]-4H,6H-pyrrolo[3,4-c]pyrazol-5-yl]propan-1-one], the Emax stood at 111%. For the same molecule, the activity under setting [1] was half-maximal at 580 nM (AC50).

As for `C[C@@H](O)[C@@H](C(=O)N1Cc2cn(S(=O)(=O)c3cnn(CC(F)(F)F)c3)nc2C1)c1ccccc1` [Compound 49, (2S,3R)-3-hydroxy-2-phenyl-1-{2-[1-(2,2,2-trifluoroethyl)pyrazol-4-ylsulfonyl]-4H,6H-pyrrolo[3,4-c]pyrazol-5-yl}butan-1-one], the Emax was found to be 113%. Further, the half-maximal activity concentration (AC50) under setting [1] is 71 nM.

As for `C[C@H](O)[C@@H](C(=O)N1Cc2cn(S(=O)(=O)c3cnn(CC(F)(F)F)c3)nc2C1)c1ccccc1` [Compound 50, (2S,3S)-3-hydroxy-2-phenyl-1-{2-[1-(2,2,2-trifluoroethyl)pyrazol-4-ylsulfonyl]-4H,6H-pyrrolo[3,4-c]pyrazol-5-yl}butan-1-one], the Emax is 89%. In addition, the activity under setting [1] was half-maximal at 82 nM (AC50).

As for `O=C([C@H](O)c1ccccc1F)N1Cc2cn(S(=O)(=O)c3ccn(CC(F)F)n3)nc2C1` [Compound 51, (2R)-1-{2-[1-(2,2-difluoroethyl)pyrazol-3-ylsulfonyl]-4H,6H-pyrrolo[3,4-c]pyrazol-5-yl}-2-(2-fluorophenyl)-2-hydroxyethanone], the AC50 is 140 nM and the Emax was determined as 112%.

For `O=C(N1Cc2cn(S(=O)(=O)c3cnn(CC(F)(F)F)c3)nc2C1)C1(c2ncccc2Cl)COC1` [Compound 52, (3-(3-chloropyridin-2-yl)oxetan-3-yl)(2-((1-(2,2,2-trifluoroethyl)-1H-pyrazol-4-yl)sulfonyl)-2,6-dihydropyrrolo[3,4-c]pyrazol-5(4H)-yl)methanone], the Emax is 93%. The activity under setting [1] was half-maximal at 24 nM (AC50).

Take `O=C([C@H](CO)c1cccc(F)c1F)N1Cc2cn(S(=O)(=O)c3cnn(CC(F)F)c3)nc2C1` [Compound 53, (2S)-1-{2-[1-(2,2-difluoroethyl)pyrazol-4-ylsulfonyl]-4H,6H-pyrrolo[3,4-c]pyrazol-5-yl}-2-(2,3-difluorophenyl)-3-hydroxypropan-1-one]: the Emax was found to be 100%. Besides, half-maximal activity under setting [1] (AC50) was put at 5.2 nM.

In the case of `O=C([C@@H](CO)c1cccc(F)c1F)N1Cc2cn(S(=O)(=O)c3cnn(CC(F)F)c3)nc2C1` [Compound 54, (2R)-1-{2-[1-(2,2-difluoroethyl)pyrazol-4-ylsulfonyl]-4H,6H-pyrrolo[3,4-c]pyrazol-5-yl}-2-(2,3-difluorophenyl)-3-hydroxypropan-1-one], the Emax came out at 108%. For the same molecule, the half-maximal activity concentration (AC50) under setting [1] came to 260 nM.

On to `O=C([C@H](CO)c1cccc(F)c1Cl)N1Cc2cn(S(=O)(=O)c3cnn(CC(F)F)c3)nc2C1` [Compound 55, (2S)-2-(2-chloro-3-fluorophenyl)-1-{2-[1-(2,2-difluoroethyl)pyrazol-4-ylsulfonyl]-4H,6H-pyrrolo[3,4-c]pyrazol-5-yl}-3-hydroxypropan-1-one], for which the AC50 was 5.1 nM and the Emax came to 98%.

Take `O=C([C@@H](CO)c1cccc(F)c1Cl)N1Cc2cn(S(=O)(=O)c3cnn(CC(F)F)c3)nc2C1` [Compound 56, (2R)-2-(2-chloro-3-fluorophenyl)-1-{2-[1-(2,2-difluoroethyl)pyrazol-4-ylsulfonyl]-4H,6H-pyrrolo[3,4-c]pyrazol-5-yl}-3-hydroxypropan-1-one]: the activity was half-maximal at 170 nM (AC50) and the Emax came out at 122%.

Turning to `CC(C)n1cc(S(=O)(=O)n2cc3c(n2)CN(C(=O)[C@H](CO)c2ccccc2F)C3)cn1` [Compound 57, (2S)-2-(2-fluorophenyl)-3-hydroxy-1-[2-(1-isopropylpyrazol-4-ylsulfonyl)-4H,6H-pyrrolo[3,4-c]pyrazol-5-yl]propan-1-one], the Emax was 50%. The same molecule returned an AC50 under setting [1] of 6.7 nM.

`O=C([C@H](CO)c1ccccc1F)N1Cc2cn(S(=O)(=O)c3cnn(CCC(F)(F)F)c3)nc2C1` [Compound 58, (S)-2-(2-fluorophenyl)-3-hydroxy-1-(2-((1-(3,3,3-trifluoropropyl)-1H-pyrazol-4-yl)sulfonyl)-2,6-dihydropyrrolo[3,4-c]pyrazol-5(4H)-yl)propan-1-one]: the half-maximal activity concentration (AC50) is 30 nM and the Emax came to 59%.

On to `O=C([C@@H](CO)c1ccccc1F)N1Cc2cn(S(=O)(=O)c3cnn(CCC(F)(F)F)c3)nc2C1` [Compound 59, (R)-2-(2-fluorophenyl)-3-hydroxy-1-(2-((1-(3,3,3-trifluoropropyl)-1H-pyrazol-4-yl)sulfonyl)-2,6-dihydropyrrolo[3,4-c]pyrazol-5(4H)-yl)propan-1-one], for which the AC50 is 1600 nM and the Emax turned out to be 55%.

Regarding `COCCn1cc(S(=O)(=O)n2cc3c(n2)CN(C(=O)[C@H](CO)c2ccccc2F)C3)cn1` [Compound 60, (2S)-2-(2-fluorophenyl)-3-hydroxy-1-{2-[1-(2-methoxyethyl)pyrazol-4-ylsulfonyl]-4H,6H-pyrrolo[3,4-c]pyrazol-5-yl}propan-1-one], the Emax was 74%. Under setting [1], this molecule displayed an AC50 of 28 nM.

For the molecule `COCCn1cc(S(=O)(=O)n2cc3c(n2)CN(C(=O)[C@@H](CO)c2ccccc2F)C3)cn1` [Compound 61, (2R)-2-(2-fluorophenyl)-3-hydroxy-1-{2-[1-(2-methoxyethyl)pyrazol-4-ylsulfonyl]-4H,6H-pyrrolo[3,4-c]pyrazol-5-yl}propan-1-one], the Emax is 49%. The activity under setting [1] was half-maximal at 3000 nM (AC50).

For the molecule `O=C([C@H](CO)c1ccccc1F)N1Cc2cn(S(=O)(=O)c3ccn(CC(F)(F)F)n3)nc2C1` [Compound 62, (2S)-2-(2-fluorophenyl)-3-hydroxy-1-{2-[1-(2,2,2-trifluoroethyl)pyrazol-3-ylsulfonyl]-4H,6H-pyrrolo[3,4-c]pyrazol-5-yl}propan-1-one], the Emax was determined as 60%. Moreover, under setting [1], the activity was half-maximal at 70 nM (AC50).

Regarding `O=C([C@H](CO)c1ccccc1Cl)N1Cc2cn(S(=O)(=O)c3ccn(CC(F)(F)F)n3)nc2C1` [Compound 63, (2S)-2-(2-chlorophenyl)-3-hydroxy-1-[2-[1-(2,2,2-trifluoroethyl)pyrazol-3-ylsulfonyl]-4H,6H-pyrrolo[3,4-c]pyrazol-5-yl]propan-1-one], the Emax came to 85%. Also, half-maximal activity under setting [1] (AC50) was put at 50 nM.

On to `O=C(N1Cc2cn(S(=O)(=O)c3ccn(CC(F)F)n3)nc2C1)C1(c2ncccc2Cl)COC1` [Compound 64, 3-chloro-2-(3-{2-[1-(2,2-difluoroethyl)pyrazol-3-ylsulfonyl]-4H,6H-pyrrolo[3,4-c]pyrazole-5-carbonyl}oxetan-3-yl)pyridine], for which the Emax is 100%. Further, the activity under setting [1] was half-maximal at 12 nM (AC50).

Turning to `O=C(N1Cc2cn(S(=O)(=O)c3ccn(CC(F)(F)F)n3)nc2C1)C1(c2ncccc2Cl)COC1` [Compound 65, (3-(3-chloropyridin-2-yl)oxetan-3-yl)(2-((1-(2,2,2-trifluoroethyl)-1H-pyrazol-3-yl)sulfonyl)-2,6-dihydropyrrolo[3,4-c]pyrazol-5(4H)-yl)methanone], the Emax turned out to be 42%. Under setting [1], this molecule gave a concentration at half-maximal activity (AC50) of 110 nM.
